Legend:
Phytophthora infestans = test: whole plant or invertebrate; format: in vivo; conditions: Phytophthora infestans, in Solanum lycopersicum, 96 h, read-out: control value (Test 1)
[1] = test system: Pseudoperonospora cubensis; test: Test 2: control effect against cucumber downy mildew; format: in vivo; conditions: Pseudoperonospora cubensis, 120 h, control value vs untreated section
In short: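 Cucumber (Sagami hanjiro) at 2-leaf stage sprayed with 4 ppm compound from 10% wettable powder in Tween20 (1/5000); inoculated next day with P. cubensis zoospores, 1.0×10^4 units/ml, 16 hr moist chamber at 22° C. Lesion area rate scored 5 days post-inoculation; control value = (1 − treated/untreated onset area rate)×100.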

Plasmopara viticola = test: Test 3: control effect against grape downy mildew; format: in vivo; conditions: Plasmopara viticola, 120 h, control value vs untreated section
In short: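 Neomuscat grape seedlings were sprayed with compound at 4 ppm, diluted from a 10% wettable powder in Tween20 solution. One day later they were inoculated with Plasmopara viticola zoospores at 1.0×10^4 units/ml and held moist at 22° C. for 16 hr. Control value was derived from leaf lesion area at 5 days versus untreated leaves.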

Cc1cc(C(F)(F)F)nn1CC(=O)N1CCC(c2nc(C3OCc4c(F)ccc(OS(C)(=O)=O)c4CO3)cs2)CC1 (stereo not shown) [Compound 1-8, 4-[4-(6-fluoro-9-methylsulfonyloxy-1,5-dihydro-3H-2,4-benzodioxepin-3-yl)-2-thiazolyl]-1-[2-[5-methyl-3-(trifluoromethyl)-1H-pyrazole-1-yl]acetyl]piperidine]
pest or weed control at 4 µg/mL (Phytophthora infestans): 100%
pest or weed control at 4 µg/mL [1]: 100%
pest or weed control at 4 µg/mL (Plasmopara viticola): 100%
melting point: 151 °C

From patent publication US10104891B2 (priority 2014, dated 2018)
